Assay results from patent publication US9414598B2, “Protecting wood with stabilized boron complexes” (priority 2006, dated 2016).
Read-outs that look alike come from different tables or passages of the source. Marks after values point to notes of the source that are not given here.

Tests used:
[1] = for Mean values of the initial boron retention: before leaching, (standard deviations); for Mean of boron retained in wood (std. dev): mean of three samples
Procedure: Accelerated leaching tests were performed according to AWPA E11-97 (AWPA, 2003). Four Southern yellow pine (Pinus sp.) samples were leached, each in its own leaching flask. At the end of each leaching period, the leachate was collected and the samples were air dried for two weeks. The amount of boron retained in the wood was determined by inductive coupled plasma (ICP) spectrometry after boron was extracted with hydrochloric acid from the ground wood.

Brown rot = settings: 12 weeks decay
Procedure: (§1) Decay tests were conducted on wood blocks, both leached and unleached. Samples were halved, with one group subjected to weathering and the other group maintained unweathered. Both sets of samples were subjected to a soil block culture test according to the AWPA E10-01 method. For each block, the percentage of mass loss was determined. These samples were allowed to decay for 12 weeks for brown rot decay and for 16 weeks for white rot decay.

White rot = settings: for % mass loss (std. dev): White rot, 16 weeks decay
Procedure: as §1

Description for Coptotermes formosanus: The wood cubes also were subjected to a termite mortality test (Coptotermes formosanus).

## OB(O)O [Boric acid only, Boric acid]
[1]; Southern yellow pine cubes, samples for Leaching test
  Mean values of the initial boron retention: 2075.0^a (2.19)^b ppm
[1]; leaching duration 0 (Not unleached)
  Mean of boron retained in wood (std. dev): 2075.0 (80.18) ppm
[1]; leaching duration 6 hours
  Mean of boron retained in wood (std. dev): 1005.00 (125.2) ppm
[1]; leaching duration 24 hours
  Mean of boron retained in wood (std. dev): 737.13 (40.85) ppm
[1]; leaching duration 2 days
  Mean of boron retained in wood (std. dev): 99.32 (17.84) ppm
[1]; leaching duration 4 days
  Mean of boron retained in wood (std. dev): 25.37 (2.81) ppm
[1]; leaching duration 6 days
  Mean of boron retained in wood (std. dev): 2.908 (0.61) ppm
[1]; leaching duration 8 days
  Mean of boron retained in wood (std. dev): 2.941 (0.83) ppm
[1]; leaching duration 10 days
  Mean of boron retained in wood (std. dev): 2.89 (0.79) ppm
[1]; leaching duration 12 days
  Mean of boron retained in wood (std. dev): 2.79 (0.53) ppm
[1]; leaching duration 14 days
  Mean of boron retained in wood (std. dev): 2.8 (0.82) ppm
[1]; leaching of treated wood cubes
  loss of boron on leaching (in words): lost most of their boron within 6 hours
[1]; samples for Brown rot test
  Mean values of the initial boron retention: 2227.31 (3.27) ppm
[1]; samples for White rot test
  Mean values of the initial boron retention: 2225.43 (1.27) ppm
Brown rot; Not leached samples
  % mass loss (std. dev): 3.21 (0.22) %
Brown rot; leached samples
  % mass loss (std. dev): 18.88 (2.30) %
White rot; Not leached samples
  % mass loss (std. dev): 2.51 (0.51) %
White rot; leached samples
  % mass loss (std. dev): 16.59 (2.19) %
White rot; leached samples, summary of Table 4 for white rot and brown rot
  decay resistance (in words): no significant decay resistance
Coptotermes formosanus; in vivo
  Termite mortality (%): 4.3%
Coptotermes formosanus; treated wood cubes, boron-CA-SS after leaching
  protection against termites (in words): adequate protection against termites
